Source: ChEMBL document CHEMBL5653610, “The novel phosphodiesterase 10A inhibitor THPP-1 has antipsychotic-like effects in rat and improves cognition in rat and rhesus monkey” (Neuropharmacology, 2013)
Calls of active or inactive are those of the source. The rule behind the calls is not given here.

Tested on: Rattus norvegicus
Test: Antipsychotic activity in Wistar Hannover rat assessed as increase in recognition at 0.56 mg/kg, ip dosed 30 mins before identical objects by novel object recognition test
Format: functional, organism-based

COc1cc2c(cc1OC)C(=O)C(CC1CCN(Cc3ccccc3)CC1)C2 (stereo unspecified)
Activity: Active
